This is an account of results in US8722896B2, “Prokineticin receptor antagonists and uses thereof” (The Regents of the University of California, priority 2008, dated 2014).

Broadly, the Ki is a measure of affinity in units of concentration, obtained from inhibition or displacement.

SMILES strings stand for the structures.

The first experiment concerns the target recombinant PKR1 (Homo sapiens (Human), UniProt Q8TCW9). Description: Aequorin-based Ca2+ mobilization antagonist assay, CHO cells expressing PKR1. Format: cell-based.
Conditions: not given
Here is the method: An aequorin-based luminescent assay for calcium mobilization was used to measure mobilization of intracellular Ca^2+ (Bullock et al., Mol Pharmacol 65, 582-588, 2004). Chinese hamster ovary (CHO) cells stably expressing photoprotein aequorin and recombinant PKR1 or PKR2 were tested by this method. Briefly, the cells were charged in Opti-MEM (Invitrogen) containing 8 μM of coelenterazine cp at 37° C. for 2 hours. Cells were detached by brief typsinization and maintained in Hank's Balanced Salt Solution (HBSS) plus 10 mM HEPES (pH7.5) and 0.1% BSA at about 5×10^5 cells/ml. Luminescence measurements were made using a Berthold luminometer.
All compounds were diluted in HBSS plus 10 mM HEPES (pH7.5) and 0.1% BSA. To test the agonist activity, 100 μl of cells were injected into the tubes with 20 μl of compounds. For antagonist assays, 80 μl cells were incubated in the tubes with 20 μl different concentrations of antagonists at room temperature for 20 minutes, and then 100 μl of recombinant PK2 were injected. The IC50 obtained from the assays were then converted to Ki values using the formula: IC50/(1+[PK2]/EC50PK2).
The following compounds were prepared using the above synthetic routes and protocols by varying the starting materials, reagents or conditions used. The requisite reagents were either commercially available, described in the literature, or readily synthesized by one skilled in the art. The potency of these compounds in antagonizing PK2-stimulated calcium mobilization were tested in Chinese hamster ovary (CHO) cells that stably express recombinant PKR1 or PKR2.
A general note: A change in cytosolic calcium serves as a functional read-out for many receptors and channels.
On to `CC(C)CN(Cc1cc(Cl)c2c(c1)CCCCO2)C(=O)[C@@H]1CCCN(Cc2cccc3ccn(C)c23)C1`, for which the Ki is 9.42 nM.

Take `CC(C)CN(Cc1cc(Cl)c2c(c1)CCCCO2)C(=O)[C@@H]1CCN(Cc2cccc3c2ccn3C)C1`: the Ki was 11.6 nM.

As to `CC(C)CN(Cc1cc(Cl)c2c(c1)OCCCO2)C(=O)C(C)CNCc1cccc2c1OCO2` (stereo not drawn), the Ki worked out at 44.8 nM.

As to `CC(C)CN(Cc1cc(Cl)c2c(c1)OCCCO2)C(=O)C(C)CNCc1cccc2ccn(C)c12` (stereo not drawn), the Ki is 16.5 nM.

As for `CC(C)CN(Cc1cc(Cl)c2c(c1)OCCCO2)C(=O)[C@@H]1CCCN(Cc2cccc3[nH]ccc23)C1`, the Ki came to 38 nM.

Consider `CC(C)CN(Cc1cc(Cl)c2c(c1)OCCCO2)C(=O)[C@@H]1CCCN(Cc2cccc3c2NCC3)C1`, for which the Ki was 3.29 nM.

In the case of `CC(C)CN(Cc1cc(Cl)c2c(c1)OCCCO2)C(=O)[C@@H]1CCN(Cc2ccc(F)c(N)c2)C1`, the Ki came out at 24 nM.

Take `CC(C)CN(Cc1cc(Cl)c2c(c1)OCCCO2)C(=O)[C@@H]1CCN(Cc2cccc(N)c2)C1`: the Ki came to 133 nM.

Consider `CC(C)CN(Cc1cc(Cl)c2c(c1)OCCCO2)C(=O)[C@H](C)CNCc1cc(F)c(F)cc1F`, for which the Ki turned out to be 258 nM.

As to `CCc1c(C)cccc1CN1CC[C@@H](C(=O)N(Cc2cc(Cl)c3c(c2)OCCCO3)CC(C)C)C1`, the Ki was determined as 226 nM.

In the case of `CCc1cccc(CN2CC[C@@H](C(=O)N(Cc3cc(Cl)c4c(c3)OCCCO4)CC(C)C)C2)c1`, the Ki was 88.8 nM.

Regarding `COc1ccccc1CN1CCC[C@@H](C(=O)N(Cc2cc(Cl)c3c(c2)OCCCO3)CC(C)C)C1`, the Ki came to 38.8 nM.

Regarding `COc1ccccc1CN1CCC[C@@H](C(=O)N(Cc2ccc3c(c2)OCCCO3)CC(C)C)C1`, the Ki amounted to 38.6 nM.

Take `COc1ccccc1CN1CC[C@@H](C(=O)N(Cc2ccc3c(c2)OCCCO3)CC(C)C)C1`: the Ki was 12.8 nM.

Take `Cc1cccc(CN2CCC[C@@H](C(=O)N(Cc3cc(Cl)c4c(c3)OCCCO4)CC(C)C)C2)c1`: the inhibitory constant (Ki) worked out at 29.4 nM.

Take `CC(C)CN(Cc1cc(Cl)c2c(c1)CCCCO2)C(=O)C1CN(Cc2cccc3cc[nH]c23)CCO1` (racemic): the Ki turned out to be 4.02 nM.

On to `CC(C)CN(Cc1cc(Cl)c2c(c1)CCCCO2)C(=O)C1CN(Cc2cccc3ccn(C)c23)CCO1` (racemic), for which the Ki was 9.94 nM.

On to `CC(C)CN(Cc1cc(Cl)c2c(c1)OCCCO2)C(=O)C(C)CNCc1cccc2c1OCCO2` (racemic), for which the Ki turned out to be 58.4 nM.

As for `CC(C)CN(Cc1cc(Cl)c2c(c1)OCCCO2)C(=O)C1CCN(Cc2ccccc2)O1` (racemic), the Ki was determined as 2200 nM.

As to `CC(C)CN(Cc1cc(Cl)c2c(c1)OCCCO2)C(=O)C1CN(Cc2cccc3c2ccn3C)CCO1` (racemic), the Ki was 12.5 nM.

As to `CC(C)CN(Cc1cc(Cl)c2c(c1)OCCCO2)C(=O)C1CN(Cc2cccc3ccn(C)c23)CCO1` (racemic), the Ki worked out at 24.4 nM.

For `CCc1c(C)cccc1CNCC(C)C(=O)N(Cc1cc(Cl)c2c(c1)OCCCO2)CC(C)C` (racemic), the Ki was 226 nM.

Turning to `Cc1ccc(C)c(CN2CCOC(C(=O)N(Cc3cc(Cl)c4c(c3)OCCCO4)CC(C)C)C2)c1` (racemic), the Ki was determined as 83 nM.

As for `Cc1cccc(C)c1CNCC(C)C(=O)N(Cc1cc(Cl)c2c(c1)OCCCO2)CC(C)C` (racemic), the Ki was 44 nM.

For `Cc1cccc(CNCC(C)C(=O)N(Cc2cc(Cl)c3c(c2)OCCCO3)CC(C)C)c1` (racemic), the Ki was 44.2 nM.

Regarding `Cc1cccc(CNCC(C)C(=O)N(Cc2cc(Cl)c3c(c2)OCCCO3)CC(C)C)c1C` (racemic), the Ki amounted to 13 nM.

Take `Cc1ccccc1CN1CCOC(C(=O)N(Cc2cc(Cl)c3c(c2)OCCCO3)CC(C)C)C1` (racemic): the Ki is 37.4 nM.

As for `Cc1ccccc1CNCC(C)C(=O)N(Cc1cc(Cl)c2c(c1)OCCCO2)CC(C)C` (racemic), the Ki stood at 19.6 nM.

The same experiment, now with this note: antagonism of PK2-stimulated calcium mobilization in CHO cells; Ki = IC50/(1+[PK2]/EC50PK2); read-out: Ki for PKR1.
Turning to `COc1cc(F)ccc1CNCC(C)C(=O)N(Cc1cc(Cl)c2c(c1)OCCCO2)CC(C)C` (racemic) [(±)-2-Methyl-3-((2-methoxy-4-fluoro)benzylamino)-N-(9-chloro-3,4-dihydro-2H-1,5-benzodioxepin-7-ylmethyl)-N-isobutylpropanamide], the Ki turned out to be 50 nM.

On to `COc1cc(CNCC(C)C(=O)N(Cc2cc(Cl)c3c(c2)OCCCO3)CC(C)C)ccc1F` (racemic) [(±)-2-Methyl-3-((3-methoxy-4-fluoro)benzylamino)-N-(9-chloro-3,4-dihydro-2H-1,5-benzodioxepin-7-ylmethyl)-N-isobutylpropanamide], for which the Ki was determined as 11.6 nM.

`CC(=O)Oc1cccc(CN2CCOC(C(=O)N(Cc3cc(Cl)c4c(c3)OCCCO4)CC(C)C)C2)c1` (racemic) [(±)-(3R)-1-(3-acetoxybenzyl)-N-(9-chloro-3,4-dihydro-2H-1,5-benzodioxepin-7-ylmethyl)-N-isobutylmorpholine-3-carboxamide]: the Ki is 8.5 nM.

Turning to `CC(C)CN(Cc1cnc2c(c1)OCCCO2)C(=O)C1CCCN(Cc2cccc3cc[nH]c23)C1` (single isomer, unassigned; (-)), the Ki was 104 nM.

For the compound `CC(=O)Oc1cccc(CN2CCC[C@@H](C(=O)N(Cc3cc(Cl)c4c(c3)OCCCO4)CC(C)C)C2)c1` [(−)-(3R)-1-(3-acetoxybenzyl)-N-(9-chloro-3,4-dihydro-2H-1,5-benzodioxepin-7-ylmethyl)-N-isobutylpiperidine-3-carboxamide], the Ki stood at 107 nM.

As for `COc1cc(F)ccc1CN1CCC[C@@H](C(=O)N(Cc2cc(Cl)c3c(c2)OCCCO3)CC(C)C)C1` [(−)-(3R)-1-(4-Fluoro-2-methoxybenzyl)-N-(9-chloro-3,4-dihydro-2H-1,5-benzodioxepin-7-ylmethyl)-N-isobutylpiperidine-3-carboxamide], the Ki came to 65.2 nM.

As for `COc1cc(F)ccc1CN1CC[C@@H](C(=O)N(Cc2cc(Cl)c3c(c2)OCCCO3)CC(C)C)C1` [(−)-(3R)-1-(4-Fluoro-2-methoxybenzyl)-N-(9-chloro-3,4-dihydro-2H-1,5-benzodioxepin-7-ylmethyl)-N-isobutylpyrrolidine-3-carboxamide], the Ki came out at 7.72 nM.

Turning to `COc1cc(CN2CCC[C@@H](C(=O)N(Cc3cc(Cl)c4c(c3)OCCCO4)CC(C)C)C2)ccc1F` [(−)-(3R)-1-(4-Fluoro-3-methoxybenzyl)-N-(9-chloro-3,4-dihydro-2H-1,5-benzodioxepin-7-ylmethyl)-N-isobutylpiperidine-3-carboxamide], the Ki was 8.68 nM.

Take `COc1cc(CN2CC[C@@H](C(=O)N(Cc3cc(Cl)c4c(c3)OCCCO4)CC(C)C)C2)ccc1F` [(−)-(3R)-1-(4-Fluoro-3-methoxybenzyl)-N-(9-chloro-3,4-dihydro-2H-1,5-benzodioxepin-7-ylmethyl)-N-isobutylpyrrolidine-3-carboxamide]: the Ki amounted to 9.66 nM.

Consider `CC(C)CN(Cc1cc(Cl)c2c(c1)OCCCO2)C(=O)[C@@H]1CCCN(Cc2cccc3c2N(C)CC3)C1` [(−)-(3R)-1-(N-methyl-indolin-7-ylmethyl)-N-(9-chloro-3,4-dihydro-2H-1,5-benzodioxepin-7-ylmethyl)-N-isobutylpiperidine-3-carboxamide], for which the Ki turned out to be 87.3 nM.

In the case of `CC(C)CN(Cc1cc(Cl)c2c(c1)OCC(F)(F)CO2)C(=O)[C@@H]1CCN(Cc2ccccc2)C1` [(−)-(3R)-1-Benzyl-N-(9-chloro-3,3-difluoro-3,4-dihydro-2H-1,5-benzodioxepin-7-ylmethyl)-N-isobutylpyrrolidine-3-carboxamide], the Ki was found to be 224 nM.
